Reference: patent US20240417410A1, “TRICYCLIC COMPOUNDS FOR THE TREATMENT OF CANCER” (Hoffmann-La Roche Inc., priority 2023, published 2024)
Where two headings read alike, the source gives them in different places.

Tests used:
Assay in all cases: Cell proliferation, CTG 3D, 7 d
Type in all cases: cell-based
TT = conditions: Homo sapiens, KRAS (WT ampl)
Description: (§1) On Day-1, cells were plated in 384-well round-bottom ultra-low adhesion plates (cat. Corning 3830, with cell density adjusted according to Table 3. The assay plate was then centrifuged at 1000 rpm for 1 minute to ensure even distribution of cells. The plate was incubated at 37° C. in a 5% CO2 atmosphere (It is worth noting that for SW1271 cell plate, it needs to be incubated in an incubator without additional CO2).
(§2) On Day 0, Example 24 or A122 was added to each well using a Tecan HP D300E dispenser, with a 3-fold dilution across 9 doses. The final concentration of DMSO was normalized to 0.2%. The assay plate was then centrifuged at 1000 rpm for 1 minute and incubated for 7 days.
(§3) On Day 7, CellTiter-Glo (CTG) 3D reagent (Promega G9683) was dispensed into each well of a 384-well plate using a multi-drop dispenser (Thermo Scientific 66413). A liquid handling automation workstation (Bravo with a 384-well head) was used to mix the CTG reagents. Plates were left on a shaker for 30 minutes at 450 rpm, shielded from light.
(§4) For data analysis, the XL-fit software (Supplier: ID Business Solutions Ltd., Software version: XL fit 5.0) was utilized. The percentage of inhibition was calculated using the formula: Inhibition %=(Max-Sample value)/(Max-Min)×100. Curve fitting was performed as follows: For complete dose-response curves, the relative IC50 was reported from the fit. For incomplete curves, if minimal inhibition was greater than 50%, an IC50 less than the lowest compound concentration was reported. If minimal inhibition was between 20% and 50%, the bottom was locked at 0% and the IC50 was reported. If maximal inhibition was less than 50%, an IC50 greater than the highest compound concentration was reported.

HPAC = conditions: Homo sapiens, KRAS (G12D)
Description: as §1, §2, §3, §4

SW 900 = conditions: Homo sapiens, SW900; SW 900, KRAS (G12V)
Description: as §1, §2, §3, §4

Toledo = conditions: Homo sapiens
Description: as §1, §2, §3, §4

NCI-H1299 = conditions: Homo sapiens
Description: as §1, §2, §3, §4

RL95-2 = conditions: Homo sapiens
Description: as §1, §2, §3, §4

CAL-62 = conditions: Homo sapiens
Description: as §1, §2, §3, §4

SK-LU-1 = conditions: Homo sapiens; SK-LU-1, KRAS (G12D)
Description: as §1, §2, §3, §4

RD = conditions: Homo sapiens
Description: as §1, §2, §3, §4

NCI-H358 = conditions: Homo sapiens; NCI-H358, KRAS (G12C)
Description: as §1, §2, §3, §4

NCI-H1573 = conditions: Homo sapiens
Description: as §1, §2, §3, §4

UMC-11 = conditions: Homo sapiens; UMC-11, KRAS (WT ampl)
Description: as §1, §2, §3, §4

BEN = conditions: Homo sapiens, KRAS (WT ampl)
Description: as §1, §2, §3, §4

T24 = conditions: Homo sapiens, T-24; T24, HRAS (p.G12V)
Description: as §1, §2, §3, §4

NCI-H2347 = conditions: Homo sapiens
Description: as §1, §2, §3, §4

OCI-AML-3 = conditions: Homo sapiens
Description: as §1, §2, §3, §4

KMS26 = conditions: Homo sapiens, KMS-26; KMS26, KRAS (WT ampl)
Description: as §1, §2, §3, §4

NCI-H2291 = conditions: Homo sapiens
Description: as §1, §2, §3, §4

HCT-15 = conditions: Homo sapiens
Description: as §1, §2, §3, §4

Mia-pa-ca-2 = conditions: Homo sapiens, MIA PaCa-2; Mia-pa-ca-2, KRAS (G12C)
Description: as §1, §2, §3, §4

TF-1 = conditions: Homo sapiens
Description: as §1, §2, §3, §4

LS513 = conditions: Homo sapiens, LS-513; LS513, KRAS (G12D)
Description: as §1, §2, §3, §4

Hs-766T = conditions: Homo sapiens, Hs766T
Description: as §1, §2, §3, §4

T84 = conditions: Homo sapiens
Description: as §1, §2, §3, §4

SK-MEL-2 = conditions: Homo sapiens
Description: as §1, §2, §3, §4

HS 578T = conditions: Homo sapiens, HRAS (p.G12D)
Description: as §1, §2, §3, §4

SW 837 = conditions: Homo sapiens, SW837; SW 837, KRAS (G12C)
Description: as §1, §2, §3, §4

NCI-H1734 = conditions: Homo sapiens
Description: as §1, §2, §3, §4

## CO[C@@H](C)c1ncc(N2CCN(C)CC2)cc1-c1c2c3cc(cc4c3n1CCC4)-c1csc(n1)C[C@H](NC(=O)[C@H]1[C@H](C)[C@@H]1C)C(=O)N1CCC[C@H](N1)C(=O)OCC(C)(C)C2 (atropisomer, axis not shown; (M)) [Example 24, (1r,2R,3S)-N-[(7S,13S)-(20M)-20-[2-[(1S)-1-methoxyethyl]-5-(4-methylpiperazin-1-yl)-3-pyridyl]-17,17-dimethyl-8,14-dioxo-15-oxa-4-thia-9,21,30,31-tetrazahexacyclo[23.3.1.1^2,5.1^9,13.0^19,27.0^21,26]hentriaconta-1 (28),2,5 (31), 19,25 (29),26-hexaen-7-yl]-2,3-dimethyl-cyclopropanecarboxamide]
TT
  IC50: 2.9 nM
HPAC
  IC50: 0.31 nM
SW 900
  IC50: 0.28 nM
Toledo; KRAS (G13D), read-out: IC50
  IC50: 100 nM
NCI-H1299; NCI-H1299, NRAS (p.Q61K), read-out: IC50
  IC50: 0.93 nM
RL95-2; RL95-2, HRAS (p.Q61H), read-out: IC50
  IC50: 1.3 nM
CAL-62; CAL-62, KRAS (G12R), read-out: IC50
  IC50: 1.1 nM
SK-LU-1
  IC50: 0.5 nM
RD; NRAS (p.Q61H), read-out: IC50
  IC50: 0.36 nM
NCI-H358
  IC50: 0.12 nM
NCI-H1573; NCI-H1573, KRAS (G12A), read-out: IC50
  IC50: 0.82 nM
UMC-11
  IC50: 100 nM
BEN
  IC50: 40 nM
T24
  IC50: 0.3 nM
NCI-H2347; NCI-H2347, KRAS (L19F), read-out: IC50
  IC50: 2 nM
OCI-AML-3; OCI-AML-3, NRAS (p.Q61L), read-out: IC50
  IC50: 3.3 nM
KMS26
  IC50: 50 nM
NCI-H2291; NCI-H2291, KRAS (G12F), read-out: IC50
  IC50: 0.55 nM
HCT-15; HCT-15, KRAS (G13D), read-out: IC50
  IC50: 100 nM
Mia-pa-ca-2
  IC50: 0.064 nM
TF-1; TF-1, NRAS (p.Q61P), read-out: IC50
  IC50: 130 nM
LS513
  IC50: 0.68 nM
Hs-766T; Hs-766T, KRAS (Q61H), read-out: IC50
  IC50: 100 nM
T84; T84, KRAS (G13D), read-out: IC50
  IC50: 100 nM
SK-MEL-2; SK-MEL-2, NRAS (p.Q61R), read-out: IC50
  IC50: 2 nM
HS 578T
  IC50: 1.7 nM
SW 837
  IC50: 0.22 nM
NCI-H1734; NCI-H1734, KRAS (G13C), read-out: IC50
  IC50: 0.74 nM

## CCn1c(-c2cc(N3CCN(C)CC3)cnc2[C@H](C)OC)c2c3cc(ccc31)-c1csc(n1)C[C@H](NC(=O)[C@H]1C[C@@H]1C)C(=O)N1CCC[C@H](N1)C(=O)OCC(C)(C)O2 [Example A122, reference compound]
TT
  IC50: 5.9 nM
HPAC
  IC50: 0.3 nM
SW 900
  IC50: 0.23 nM
Toledo
  IC50: 100 nM
NCI-H1299; NCI-H1299
  IC50: 1.5 nM
RL95-2; RL95-2
  IC50: 2.6 nM
CAL-62; CAL-62
  IC50: 8.8 nM
SK-LU-1
  IC50: 0.56 nM
RD
  IC50: 0.7 nM
NCI-H358
  IC50: 0.27 nM
NCI-H1573; NCI-H1573
  IC50: 1.2 nM
UMC-11
  IC50: 100 nM
BEN
  IC50: 43 nM
T24
  IC50: 0.57 nM
NCI-H2347; NCI-H2347
  IC50: 4.2 nM
OCI-AML-3; OCI-AML-3
  IC50: 8.9 nM
KMS26
  IC50: 48 nM
NCI-H2291; NCI-H2291
  IC50: 1 nM
HCT-15; HCT-15
  IC50: 100 nM
Mia-pa-ca-2
  IC50: 0.082 nM
TF-1; TF-1
  IC50: 100 nM
LS513
  IC50: 0.47 nM
Hs-766T
  IC50: 100 nM
T84; T84
  IC50: 100 nM
SK-MEL-2; SK-MEL-2
  IC50: 3 nM
HS 578T
  IC50: 3.1 nM
SW 837
  IC50: 0.67 nM
NCI-H1734; NCI-H1734
  IC50: 1.3 nM
